In ChEMBL document CHEMBL4024763, “Discovery and Optimization of Pyrrolopyrimidine Inhibitors of Interleukin-1 Receptor Associated Kinase 4 (IRAK4) for the Treatment of Mutant MYD88L265P Diffuse Large B-Cell Lymphoma” (J Med Chem, 2017):
Values after ≈ are worked out from the molar mass of the structure shown.

Assay: Lipophilicity, log D of the compound at pH 7.4 by shake flask method
Assay type: physicochemical
Conditions: buffer

logD | SMILES
0.3 | CN(C)[C@H]1CC[C@H](Nc2ncnc3[nH]cc(C4CCCO4)c23)CC1 (stereo in doubt; 18b)

Same assay, conditions: buffer, read-out: logD

SMILES | logD
CN(C)[C@H]1CC[C@H](Nc2ncnc3sc4c(c23)CCC4)CC1 | 1.2
CN(C)[C@H]1CC[C@H](Nc2ncnc3[nH]cc(C(F)(F)F)c23)CC1 | 1.5
Cc1sc2ncnc(N[C@H]3CC[C@H](N(C)C)CC3)c2c1C | 0.7
N#Cc1cnc2[nH]cc(C3CCOCC3)c2c1N[C@H]1CC[C@H](N2CCOCC2)CC1 | 2.3
Cc1csc2ncnc(N[C@H]3CC[C@H](N(C)C)CC3)c12 | 0.3
Cc1cc2c(N[C@H]3CC[C@H](N(C)C)CC3)ncnc2[nH]1 | -0.2
CN(C)[C@H]1CC[C@H](Nc2ncnc3[nH]c4c(c23)CCC4)CC1 | 0.5
CN(C)[C@H]1CC[C@H](Nc2ncnc3[nH]ccc23)CC1 | -0.6
Cc1cc2c(N[C@H]3CC[C@H](N(C)C)CC3)ncnc2s1 | 0.6
CN(C)[C@H]1CC[C@H](Nc2ncnc3sccc23)CC1 | 0.1
Cc1[nH]c2ncnc(N[C@H]3CC[C@H](N(C)C)CC3)c2c1C | 0.6

The next lines start with the values.

logD | SMILES
0.3 | CN(C)[C@H]1CC[C@H](Nc2ncnc3[nH]cc(C4CCCOC4)c23)CC1 (some centres not stated)
2.4 | c1nc(O[C@H]2CC[C@H](N3CCOCC3)CC2)c2c(C3CCOCC3)c[nH]c2n1
0.6 | CN(C)[C@H]1CC[C@H](N(C)c2ncnc3[nH]cc(C4CCOCC4)c23)CC1
0.6 | CCc1c[nH]c2ncnc(N[C@H]3CC[C@H](N(C)C)CC3)c12
1.5 | CN(C)[C@H]1CC[C@H](Nc2ncnc3[nH]cc(C4CCC4)c23)CC1
3 | c1nc(S[C@H]2CC[C@H](N3CCOCC3)CC2)c2c(C3CCOCC3)c[nH]c2n1
0.9 | CN(C)[C@H]1CC[C@H](Nc2ncnc3[nH]cc(C4CC4)c23)CC1
1.2 | CN(C)[C@H]1CC[C@H](Oc2ncnc3[nH]cc(C4CCOCC4)c23)CC1
1.7 | CN(C)[C@H]1CC[C@H](Nc2ncnc3[nH]cc(C4CCCC4)c23)CC1
1.7 | c1cc(N[C@H]2CC[C@H](N3CCOCC3)CC2)c2c(C3CCOCC3)c[nH]c2n1
0.4 | CN(C)[C@H]1CC[C@H](Nc2ncnc3[nH]cc(C4CCCO4)c23)CC1 (stereo in doubt; 18a)
0.1 | CN(C)[C@H]1CC[C@H](Nc2ncnc3[nH]cc(C4CCOC4)c23)CC1 (stereo in doubt; 19a)

Assay: Drug excretion in bile duct cannulated rat bile at 2 mg/kg, iv
Assay type: ADME, organism-based
Conditions: read-out: Drug excretion

dose excreted | SMILES
2% | c1nc(N[C@H]2CC[C@H](N3CCOCC3)CC2)c2c(C3CCOCC3)c[nH]c2n1

Assay: Drug excretion in bile duct cannulated rat urine at 2 mg/kg, iv
Assay type: ADME, organism-based
Conditions: read-out: Drug excretion

dose excreted | SMILES
27% | c1nc(N[C@H]2CC[C@H](N3CCOCC3)CC2)c2c(C3CCOCC3)c[nH]c2n1

Assay: Aqueous solubility of the compound at pH 7.4 at 25 degC
Assay type: physicochemical
Conditions: buffer

solubility | SMILES
5 µM (≈ 2.01 µg/mL) | c1nc(S[C@H]2CC[C@H](N3CCOCC3)CC2)c2c(C3CCOCC3)c[nH]c2n1
